Results on three compounds are retold here after US20040260272A1, “Method and system for intravesicular delivery of therapeutic agents” (priority 2002, published 2004).

A short description of series [1]: In vitro release of Ciprofloxacin from cast hydrophilic polyurethane film in phosphate buffer. The following applies: core loading 6.0 wt %, 37 C. The format is physicochemical. The protocol:
A cast film of polyurethane containing Ciprofloxacin was made by reacting hydrophilic polyurethane prepolymer (Urepol 1002A obtained from Envirochem) with distilled water. The reacting mixture was spread in a thin film over a glass petri dish. The film was cured overnight and dried to leave a thin film of polyurethane containing Ciprofloxacin. The resultant drug carrying film was further vacuum-dried. The drug loading was measured to be 0.06 gms per 1 gm of coated film, i.e. 6.0 wt %.
The drug carrying film was placed in phosphate buffer at 37 C and a pH of 7.4 and the Ciprofloxacin in vitro release was measured.

Series [2] can be described thus: In vitro release of Thio-TEPA from polyurethane-coated polyurethane foam substrate in phosphate buffer. The format is physicochemical. The settings on record: core loading 0.9 wt %, 37 C. The protocol: A reticulated TDI/polyether based foam (SIF grade obtained from Foamex) was used as a scaffold or substrate. The foam substrate was 4″×4″ (10.2 cm×10.2 cm) square sample with a thickness of ¼″ or 0.635 cm with a volume of 65.5 cm^3 and weighed 1.2 g, giving a density of 0.0183 gms/cc. 2.42 grams of hydrophilic polyurethane prepolymer (Urepol 1002A obtained from Envirochem) and 64 milligrams of Thio-TEPA was diluted in 6 ml of DMF. The foam was dipped into the solution mixture of polyurethane prepolymer, Thio-TEPA and DMF. The Thio-TEPA containing solution mixture of polyurethane prepolymer and DMF was then distributed and spread over the foam substrate. During the spreading and distribution, it was ensured that solution mixture contacted the foam substrate from all sides and coated both the surface and internal pores of the foam substrate.
The foam substrate with coated solution mixture was held overnight below 8° C. The coating was cured by the reaction of the ambient moisture with the available reactive isocyanate in the prepolymer. After the overnight curing, the foam substrate with coated solution mixture was vacuum-dried to remove residual solvents to leave a coating of polyurethane containing Thio-TEPA.
The final weight of the foam substrate and the drug loaded coating was 3.24 gms. Density of the coated foam substrate was 0.0495 gms/cc. The drug loading was 0.009 gms per 1 gm of coated foam substrate, i.e. 0.9 wt %. The drug entrapment efficiency was 50% calculated from a final measures drug loading of 0.9 wt % and a theoretical drug loading of 1.8 wt %. The weight of the drug in the final coated foam substrate was 0.029 gms or 29 mgs with the drug density on the coated foam substrate being 0.44 mgs per cc.
The coated foam substrate was placed in phosphate buffer at 37 C, and a pH of 7.4 and the Thio-TEPA in vitro release was measured.

Series [3] can be described thus: Immobilization of collagenase in composite foam polymer system. The settings on record: composite foam (hydrophobic polyurethane scaffold with hydrophilic polyurethane coating).

`O=C(O)c1cn(C2CC2)c2cc(N3CCNCC3)c(F)cc2c1=O` [Ciprofloxacin]: the “Cumulative Release, % at Day 1” value in series [1] (pH 7.4, Day 1) was determined as 15.7%. Further, the “Cumulative Release, % at Day 3” value in series [1] (pH 7.4, Day 3) was 16.8%. For the same compound, the “Cumulative Release, % at Day 4” value in series [1] (pH 7.4, Day 4) stood at 29.28%.

As to `S=P(N1CC1)(N1CC1)N1CC1` [Thio-Tepa, Thio-TEPA], the “Cumulative Release, % at Day 1” value in series [2] (pH 7.4, Day 1) is on record as 11.9%. In series [2] (pH 7.4, Day 3), the “Cumulative Release, % at Day 3” value was 43.7%. Besides, the “Cumulative Release, % at Day 6” value in series [2] (pH 7.4, Day 6) is 66.6%.

As to collagenase, the “enzymatic activity after immobilization within the polymer system” value in series [3] is reported as “retain enzymatic activity”.
